According to patent publication US11950596B2, “Methods of protecting seeds from oxidants and microorganisms” (The United States of America, as represented by the …, priority 2020, dated 2024):
Read-outs that look alike come from different tables or passages of the source. Marks after values point to notes of the source that are not given here.

Experiments:
A. parasiticus 2999 = assay: Heat-sensitizing bioassay of OG (MFC) in other fungi; format: cell-based, Aspergillus parasiticus; conditions: 90 seconds
Experimental: (§1) As described in A. flavus 3357 test (see above), microfuge tubes were treated with mild heat (57.5° C.) or maintained at RT (22.0° C.) (90 seconds). After heat treatments, entire volume (200 μL) from each microfuge tube was spread onto fresh recovery LB agar (for bacteria) or PDA (for fungi), and plates were incubated at the optimum temperature for respective microorganisms (i.e., 35° C. for Aspergillus, 37° C. for E. coli, 28° C. for Penicillium/A. tumefaciens, respectively). The growth/survival of test microorganisms were monitored after 48 to 72 hrs of incubation.
(§2) Heat-sensitizing activity of OG against other fungi: Heat-sensitizing activity of OG was then investigated in other fungi (five Aspergillus strains and seven Penicillium strains) including fungicide resistant strains (i.e., P. expansum FR2, FR3 resistant to the conventional fungicide fludioxonil) (see Table 1).

A. parasiticus 5862 = assay: as above; format: cell-based, Aspergillus parasiticus; conditions: 90 seconds
Experimental: as §1, §2

A. brasiliensis 16404 = assay: as above; format: cell-based, Aspergillus brasiliensis; conditions: 90 seconds
Experimental: as §1, §2

P. italicum 983 = assay: as above; format: cell-based, Penicillium italicum; conditions: 90 seconds
Experimental: as §1, §2

P. griseofulvum 2159 = assay: as above; format: cell-based, Penicillium griseofulvum; conditions: 90 seconds
Experimental: as §1, §2

P. chrysogenum 824 = assay: as above; format: cell-based, Penicillium chrysogenum; conditions: 90 seconds
Experimental: as §1, §2

[1] = system: twelve fungi (Aspergillus and Penicillium); assay: Heat-sensitizing bioassay of OG, average MFC of twelve fungi; format: cell-based; conditions: 90 seconds; for MFC: read-out: average MFC of OG from twelve fungi
Experimental: as §1, §2
(RT) to 57.5° C. (mild heat).

E. coli JM109 = assay: Heat-sensitizing bioassay of OG (MBC) in bacteria; format: cell-based; conditions: Escherichia coli, 90 seconds, read-out: minimum bactericidal concentration (MBC) of OG
Experimental: as §1
(§3) Heat-sensitizing activity of OG against bacteria (A. tumefaciens, E. coli): Heat-sensitizing activity of OG was also investigated against bacterial cells (i.e., E. coli and plant-pathogenic A. tumefaciens). […] (Table 4; FIG. 2).

A. tumefaciens 4212 = assay: Heat-sensitizing bioassay of OG (MBC) in bacteria; format: cell-based, Agrobacterium tumefaciens; conditions: 90 seconds, read-out: minimum bactericidal concentration (MBC) of OG
Experimental: as §1, §3

[2] = system: A. tumefaciens or E. coli; assay: Heat-sensitizing bioassay of OG, average MBC of bacteria; format: cell-based, Agrobacterium tumefaciens, Escherichia coli; conditions: 90 seconds
Experimental: as §1, §3

A. flavus 3357 = assay: Antifungal seed disinfection bioassay (OG plus mild heat), A. flavus infection of cabbage seeds; format: in vivo, Aspergillus flavus; conditions: for No. of seedlings infected: 12 seeds; for % A. flavus infection: mean over 20/50° C. and 20/30 min
Experimental: (§4) Antifungal seed disinfection bioassays using OG: Effect of OG plus mild heat hurdle technology on the level of seed sanitation (Brassica rapa Pekinensis; Chinese cabbage hybrid) was evaluated. Twelve cabbage seeds (per treatment), unsterilized, were transferred to each 1.5 mL microcentrifuge tube filled with 1 mL (final volume) distilled water, without or with A. flavus (1×10^5 CFU/mL): (1) No OG, no A. flavus inoculum, 20 or 30 min, 20° C.; (2) No OG, no A. flavus inoculum, 20 or 30 min, 50° C.; (3) No OG, w/A. flavus, 20 or 30 min, 20° C.; (4) No OG, w/A. flavus, 20 or 30 min, 50° C.; (5) OG 2 mM, w/A. flavus, 20 or 30 min, 20° C., (6) OG 2 mM, w/A. flavus, 20 or 30 min, 50° C., (7) OG 3 mM, w/A. flavus, 20 or 30 min, 20° C.; (8) OG 3 mM, w/A. flavus, 20 or 30 min, 50° C.; (9) OG 4 mM, w/A. flavus, 20 or 30 min, 20° C.; and (10) OG 4 mM, w/A. flavus, 20 or 30 min, 50° C. After each treatment, the treated seeds (total 12 seeds per treatment) were transferred to PDA and the plates were incubated in the dark at room temperature (RT; 20° C.) for seed germination. After seed germination, the growth of seedlings and fungal germination on the surfaces of germinated seeds were monitored up to 7 days (RT).
(§5) Seed disinfection via heat-sensitizing activity of OG: Heat-sensitizing capacity of OG was investigated further with crop seeds (Brassica rapa Pekinensis; Chinese cabbage hybrid) contaminated with A. flavus 3357 on the seed surfaces. OG (0, 2, 3, 4 mM) and mild heat (50° C.; Control: 20° C.) were co-applied for 20 to 30 minutes, and the rates of seed germination were also determined.

[3] = system: Brassica rapa Pekinensis seeds; assay: Seed disinfection bioassay, germination of treated cabbage seeds; format: in vivo; conditions: for No. of seedlings germinated: 12 seeds; for % Seed germination: mean over 20/50° C. and 20/30 min
Experimental: as §4, §5

[4] = OG as low as 3 mM, mild heat 50° C., 20 min

Question: For CCCCCCCCOC(=O)c1cc(O)c(O)c(O)c1 [Octyl gallate], which MFC (A. parasiticus 2999; Aspergillus parasiticus, 2999, 22.0° C.) is on record?
Answer: Its MFC is > 300 µM.

Question: And the MFC (A. parasiticus 2999; Aspergillus parasiticus, 2999, 57.5° C.)?
Answer: The MFC was 200 µM.

Question: And the MFC (A. parasiticus 5862; Aspergillus parasiticus, 5862, 22.0° C.)?
Answer: The MFC was > 300 µM.

Question: What about the MFC (A. parasiticus 5862; Aspergillus parasiticus, 5862, 57.5° C.) of the same compound?
Answer: The MFC was 300 µM.

Question: What about the MFC (A. brasiliensis 16404; Aspergillus brasiliensis, 16404, 22.0° C.) of the same compound?
Answer: Its MFC is > 300 µM.

Question: What about the MFC (A. brasiliensis 16404; Aspergillus brasiliensis, 16404, 57.5° C.) of the same compound?
Answer: Its MFC is 160 µM.

Question: And the MFC (P. italicum 983; Penicillium italicum, 983, 22.0° C.)?
Answer: The MFC was 200 µM.

Question: What about the MFC (P. italicum 983; Penicillium italicum, 983, 57.5° C.) of the same compound?
Answer: Its MFC is 100 µM.

Question: What about the MFC (P. griseofulvum 2159; Penicillium griseofulvum, 2159, 22.0° C.) of the same compound?
Answer: The MFC was > 300 µM.

Question: And the MFC (P. griseofulvum 2159; Penicillium griseofulvum, 2159, 57.5° C.)?
Answer: Its MFC is 180 µM.

Question: What about the MFC (P. chrysogenum 824; Penicillium chrysogenum, 824, 22.0° C.) of the same compound?
Answer: Its MFC is 250 µM.

Question: And the MFC (P. chrysogenum 824; Penicillium chrysogenum, 824, 57.5° C.)?
Answer: The MFC was 130 µM.

Question: What about the MFC ([1]; 22.0° C., listed as OG) of the same compound?
Answer: Its MFC is >283.3 µM.

Question: What about the “average MFC of OG from twelve fungi” value ([1]; 57.5° C., listed as OG) of the same compound?
Answer: The value was 175.8 (p < 0.005) μM.

Question: And the MFC ([1]; Aspergillus, 22.0° C.)?
Answer: The MFC was > 283 µM.

Question: What about the MFC ([1]; Aspergillus, 57.5° C.) of the same compound?
Answer: Its MFC is 176 µM.

Question: What about the MBC (E. coli JM109; JM109, 22° C.) of the same compound?
Answer: The MBC was 300 µM.

Question: What about the MBC (E. coli JM109; JM109, 57.5° C.) of the same compound?
Answer: The MBC was 75 µM.

Question: And the MBC (A. tumefaciens 4212; Agrobacterium tumefaciens, 4212, 22° C.)?
Answer: Its MBC is 200 µM.

Question: What about the MBC (A. tumefaciens 4212; Agrobacterium tumefaciens, 4212, 57.5° C.) of the same compound?
Answer: Its MBC is 75 µM.

Question: And the MBC ([2]; 22° C.)?
Answer: The MBC was 250 µM.

Question: What about the MBC ([2]; 57.5° C.) of the same compound?
Answer: The MBC was 75 µM.

Question: What about the “average MBC of OG” value ([2]; 57.5° C., listed as OG) of the same compound?
Answer: Its value is 75* μM.

Question: And the “No. of seedlings infected” value (A. flavus 3357; OG 2 mM, 20° C., 20 min)?
Answer: Its value is 12.

Question: What about the “No. of seedlings infected” value (A. flavus 3357; OG 2 mM, 20° C., 30 min) of the same compound?
Answer: The value was 10.

Question: And the “No. of seedlings infected” value (A. flavus 3357; OG 2 mM, 50° C., 20 min)?
Answer: The value was 4.

Question: What about the “No. of seedlings infected” value (A. flavus 3357; OG 2 mM, 50° C., 30 min) of the same compound?
Answer: The value was 1.

Question: What about the “% A. flavus infection” value (A. flavus 3357; OG 2 mM) of the same compound?
Answer: Its value is 57 ± 43%.

Question: And the “No. of seedlings infected” value (A. flavus 3357; OG 3 mM, 20° C., 20 min)?
Answer: The value was 10.

Question: What about the “No. of seedlings infected” value (A. flavus 3357; OG 3 mM, 20° C., 30 min) of the same compound?
Answer: The value was 10.

Question: What about the “No. of seedlings infected” value (A. flavus 3357; OG 3 mM, 50° C., 20 min) of the same compound?
Answer: The value was 0^d.

Question: And the “No. of seedlings infected” value (A. flavus 3357; OG 3 mM, 50° C., 30 min)?
Answer: The value was 0^d.

Question: What about the “% A. flavus infection” value (A. flavus 3357; OG 3 mM) of the same compound?
Answer: Its value is 42 ± 48%.

Question: What about the “growth of A. flavus contaminated on crop seeds” value (A. flavus 3357; OG 3 mM, mild heat 50° C., 20 to 30 minutes) of the same compound?
Answer: The value was “completely inhibited”.

Question: What about the “No. of seedlings infected” value (A. flavus 3357; OG 4 mM, 20° C., 20 min) of the same compound?
Answer: The value was 12.

Question: And the “No. of seedlings infected” value (A. flavus 3357; OG 4 mM, 20° C., 30 min)?
Answer: The value was 11.

Question: And the “No. of seedlings infected” value (A. flavus 3357; OG 4 mM, 50° C., 20 min)?
Answer: The value was 0^d.

Question: And the “No. of seedlings infected” value (A. flavus 3357; OG 4 mM, 50° C., 30 min)?
Answer: The value was 0^d.

Question: And the “% A. flavus infection” value (A. flavus 3357; OG 4 mM)?
Answer: The value was 48 ± 56%.

Question: And the “growth of A. flavus on crop seeds” value (A. flavus 3357; [4])?
Answer: The value was “completely inhibited”.

Question: What about the “No. of seedlings germinated” value ([3]; OG 2 mM, 20° C., 20 min) of the same compound?
Answer: The value was 12.

Question: And the “No. of seedlings germinated” value ([3]; OG 2 mM, 20° C., 30 min)?
Answer: The value was 12.

Question: What about the “No. of seedlings germinated” value ([3]; OG 2 mM, 50° C., 20 min) of the same compound?
Answer: Its value is 12.

Question: And the “No. of seedlings germinated” value ([3]; OG 2 mM, 50° C., 30 min)?
Answer: Its value is 10.

Question: And the “% Seed germination” value ([3]; OG 2 mM)?
Answer: The value was 96 ± 8%.

Question: And the “No. of seedlings germinated” value ([3]; OG 3 mM, 20° C., 20 min)?
Answer: The value was 12.

Question: What about the “No. of seedlings germinated” value ([3]; OG 3 mM, 20° C., 30 min) of the same compound?
Answer: The value was 12.

Question: What about the “No. of seedlings germinated” value ([3]; OG 3 mM, 50° C., 20 min) of the same compound?
Answer: Its value is 12.

Question: And the “No. of seedlings germinated” value ([3]; OG 3 mM, 50° C., 30 min)?
Answer: Its value is 11.

Question: What about the “% Seed germination” value ([3]; OG 3 mM) of the same compound?
Answer: Its value is 98 ± 4%.

Question: What about the “No. of seedlings germinated” value ([3]; OG 4 mM, 20° C., 20 min) of the same compound?
Answer: The value was 12.

Question: What about the “No. of seedlings germinated” value ([3]; OG 4 mM, 20° C., 30 min) of the same compound?
Answer: The value was 12.

Question: And the “No. of seedlings germinated” value ([3]; OG 4 mM, 50° C., 20 min)?
Answer: Its value is 11.

Question: What about the “No. of seedlings germinated” value ([3]; OG 4 mM, 50° C., 30 min) of the same compound?
Answer: The value was 11.

Question: What about the “% Seed germination” value ([3]; OG 4 mM) of the same compound?
Answer: Its value is 96 ± 5%.

Question: And the “germination rate of the crop seeds compared to the control” value [3, 4]?
Answer: Its value is “not affected”.
